Results as given in US11986471B2, “Compounds and methods of use” (Tango Therapeutics, Inc., priority 2018, dated 2024).

Tests used:
Format in all cases: biochemical
PRMT5 [1] = target: T1, PRMT5 (Homo sapiens, UniProt O14744); experiment: PRMT5 IC50 assay in the presence of MTA as cofactor; conditions: for IC50: PRMT5, MTA as cofactor
T1 construct: purchased Viva (custom protein)
Description: (§1) Table 1a indicates IC50 values (μM) against PRMT5 for exemplary compounds in the presence of SAM as cofactor, with no cofactor and with MTA as cofactor, respectively (columns 3-5). […] The Ki values can be calculated from the IC50 values as described in the Examples section. As detailed in the Examples section, for the assay performed in the presence of SAM, IC50=Ki×1.5 (Ki=IC50/1.5). For the assay performed in the presence of MTA, IC50=Ki×13.5 (Ki=IC50/13.5). Column 6 indicates the ratio between the Ki of compounds in the presence of SAM and the Ki of compounds in the presence of MTA

PRMT5 [2] = target: T1, PRMT5; experiment: PRMT5 IC50 assay in the presence of SAM as cofactor
Description: as §1

PRMT5 [3] = target: T1, PRMT5; experiment: PRMT5 IC50 assay with no cofactor
Description: as §1

[4] = ratio between the Ki in the presence of SAM and the Ki in the presence of MTA
[5] = ratio between Ki in the presence of SAM and Ki in the presence of MTA

T1 sequence (O14744 whole entry): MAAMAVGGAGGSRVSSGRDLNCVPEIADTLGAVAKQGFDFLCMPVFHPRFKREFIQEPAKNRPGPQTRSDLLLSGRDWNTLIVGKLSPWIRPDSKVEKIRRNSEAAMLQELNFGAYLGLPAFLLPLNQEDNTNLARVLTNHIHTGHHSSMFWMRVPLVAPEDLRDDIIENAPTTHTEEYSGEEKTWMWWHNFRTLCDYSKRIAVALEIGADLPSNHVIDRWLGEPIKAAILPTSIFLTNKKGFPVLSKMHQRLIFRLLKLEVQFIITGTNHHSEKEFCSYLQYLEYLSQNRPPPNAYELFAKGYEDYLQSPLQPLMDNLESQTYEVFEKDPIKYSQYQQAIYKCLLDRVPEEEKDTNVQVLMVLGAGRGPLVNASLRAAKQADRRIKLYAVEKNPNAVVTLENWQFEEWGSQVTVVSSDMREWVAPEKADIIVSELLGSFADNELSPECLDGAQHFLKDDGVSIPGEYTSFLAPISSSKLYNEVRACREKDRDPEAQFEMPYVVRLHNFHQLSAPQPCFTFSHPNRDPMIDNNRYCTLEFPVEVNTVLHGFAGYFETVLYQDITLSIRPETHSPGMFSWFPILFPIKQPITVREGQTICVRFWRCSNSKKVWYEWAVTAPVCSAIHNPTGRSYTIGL
T1 sequence (Q9BQA1 whole entry partner): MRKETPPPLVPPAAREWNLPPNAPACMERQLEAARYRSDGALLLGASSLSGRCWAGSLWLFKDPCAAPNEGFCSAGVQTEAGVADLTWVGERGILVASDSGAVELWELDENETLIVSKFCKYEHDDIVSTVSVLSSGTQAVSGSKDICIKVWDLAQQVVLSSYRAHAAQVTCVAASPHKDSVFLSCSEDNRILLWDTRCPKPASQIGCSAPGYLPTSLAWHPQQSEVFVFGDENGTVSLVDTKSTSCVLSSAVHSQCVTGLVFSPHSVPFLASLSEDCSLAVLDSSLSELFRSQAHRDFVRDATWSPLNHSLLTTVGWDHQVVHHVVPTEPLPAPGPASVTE

IC50 (PRMT5 [1]) [nM] | IC50 (PRMT5 [2]) [nM] | IC50 (PRMT5 [3]) [nM] | IC50 (PRMT5 [3]; read-out: No Co-factor IC50) [nM] | SMILES | SAM/MTA Ratio (PRMT5 [1]; [4]) | SAM/MTA Ratio (PRMT5 [1]; [5])
50 to 500 | 500 to 5000 | ≥ 5000 | – | CC(=O)N1CC(Nc2nc(C(=O)NC[C@H](O)CN3CCc4cc(OCc5ocnc5C)ccc4C3)cc(N3CCCCC3)n2)C1 [Compound 608, (S)-2-((1-acetylazetidin-3-yl)amino)-N-(2-hydroxy-3-(6-((4-methyloxazol-5-yl)methoxy)-3,4-dihydroisoquinolin-2(1H)-yl)propyl)-6-(piperidin-1-yl)pyrimidine-4-carboxamide] | A (a Ki ratio greater than or equal to 10 fold between the Ki in the presence of SAM and the Ki in the presence of MTA) | –
50 to 500 | 50 to 500 | ≥ 5000 | – | CCC(=O)N1CC(Nc2cc(C(=O)NC[C@H](O)CN3CCc4c(ccc(OCc5cnco5)c4C)C3)ncn2)C1 [Compound 567, N-[(2S)-2-hydroxy-3-{5-methyl-6-[(1,3-oxazol-5-yl)methoxy]-1,2,3,4-tetrahydroisoquinolin-2-yl}propyl]-6-[(1-propanoylazetidin-3-yl)amino]pyrimidine-4-carboxamide] | A (a Ki ratio greater than or equal to 10 fold between the Ki in the presence of SAM and the Ki in the presence of MTA) | –
500 to 5000 | 500 to 5000 | ≥ 5000 | – | Cc1c(OCc2cnco2)ccc2c1CCN(C[C@@H](O)CNC(=O)c1cc(NC3CN(C(=O)CC(C)C)C3)ncn1)C2 [Compound 565, N-[(2S)-2-hydroxy-3-{5-methyl-6-[(1,3-oxazol-5-yl)methoxy]-1,2,3,4-tetrahydroisoquinolin-2-yl}propyl]-6-{[1-(3-methylbutanoyl)azetidin-3-yl]amino}pyrimidine-4-carboxamide] | A (a Ki ratio greater than or equal to 10 fold between the Ki in the presence of SAM and the Ki in the presence of MTA) | –
500 to 5000 | 500 to 5000 | ≥ 5000 | – | Cc1c(OCc2cnco2)ccc2c1CCN(C[C@@H](O)CNC(=O)c1cccc(NC3CCOCC3)c1)C2 [Compound 548, N-[(2S)-2-hydroxy-3-{5-methyl-6-[(1,3-oxazol-5-yl)methoxy]-1,2,3,4-tetrahydroisoquinolin-2-yl}propyl]-3-[(oxan-4-yl)amino]benzamide] | A (a Ki ratio greater than or equal to 10 fold between the Ki in the presence of SAM and the Ki in the presence of MTA) | –
50 to 500 | 500 to 5000 | ≥ 5000 | – | Cc1c(OCc2cnco2)ccc2c1CCN(C[C@@H](O)CNC(=O)c1cncc(NC3CCOC3)c1)C2 (some centres unmarked) [Compound 510] | A (a Ki ratio greater than or equal to 10 fold between the Ki in the presence of SAM and the Ki in the presence of MTA) | –
50 to 500 | 50 to 500 | ≥ 5000 | – | Cc1ncoc1COc1ccc2c(c1)CCN(C[C@@H](O)CNC(=O)c1cc(NC3CCN(C)C(=O)C3)ncn1)C2 (stereo partly drawn) [Compound 613, N-[(2S)-2-hydroxy-3-{6-[(4-methyl-1,3-oxazol-5-yl)methoxy]-1,2,3,4-tetrahydroisoquinolin-2-yl}propyl]-6-[(1-methyl-2-oxopiperidin-4-yl)amino]pyrimidine-4-carboxamide] | – | –
500 to 5000 | 500 to 5000 | – | ≥ 5000 | Cc1c(OCc2cnco2)cc(F)c2c1CCN(C[C@H](O)CNC(=O)c1ccnc(NC3CCC3)c1)C2 [Compound 332, 2-(cyclobutylamino)-N-[(2R)-3-[8-fluoro-5-methyl-6-(oxazol-5-ylmethoxy)-3,4-dihydro-1H-isoquinolin-2-yl]-2-hydroxy-propyl]pyridine-4-carboxamide] | – | A (a Ki ratio greater than or equal to 10 fold between the Ki in the presence of SAM and the Ki in the presence of MTA)
500 to 5000 | 500 to 5000 | ≥ 5000 | – | Cc1c(OCc2cnco2)ccc2c1CCN(C[C@@H](O)CNC(=O)c1ccnc(Nc3cccnc3)c1)C2 [Compound 531, N-[(2S)-2-hydroxy-3-{5-methyl-6-[(1,3-oxazol-5-yl)methoxy]-1,2,3,4-tetrahydroisoquinolin-2-yl}propyl]-2-[(pyridin-3-yl)amino]pyridine-4-carboxamide] | A (a Ki ratio greater than or equal to 10 fold between the Ki in the presence of SAM and the Ki in the presence of MTA) | –
500 to 5000 | 500 to 5000 | ≥ 5000 | – | CNC(=O)CN1CCC(Nc2cc(C(=O)NC[C@H](O)CN3CCc4c(ccc(OCc5cnco5)c4C)C3)ncn2)CC1 [Compound 524, N-[(2S)-2-hydroxy-3-{5-methyl-6-[(1,3-oxazol-5-yl)methoxy]-1,2,3,4-tetrahydroisoquinolin-2-yl}propyl]-6-{[1-[(methylcarbamoyl)methyl]piperidin-4-yl}amino)pyrimidine-4-carboxamide] | A (a Ki ratio greater than or equal to 10 fold between the Ki in the presence of SAM and the Ki in the presence of MTA) | –
500 to 5000 | 500 to 5000 | – | ≥ 5000 | COCCN(C)c1cc(NC2CCN(C(C)=O)CC2)cc(C(=O)NC[C@H](O)CN2CCc3cc(OCc4ocnc4C)ccc3C2)c1 (single isomer, unassigned) [Compound 649] | – | A (a Ki ratio greater than or equal to 10 fold between the Ki in the presence of SAM and the Ki in the presence of MTA)
50 to 500 | 500 to 5000 | 500 to 5000 | – | O=C(NC[C@H](O)CN1CCc2cc(OCc3cn[nH]c3)cc(F)c2C1)c1ccnc(NC2CCC2)c1 [Compound 596, 2-(cyclobutylamino)-N-[(2S)-3-[8-fluoro-6-(1H-pyrazol-4-ylmethoxy)-3,4-dihydro-1H-isoquinolin-2-yl]-2-hydroxy-propyl]pyridine-4-carboxamide] | A (a Ki ratio greater than or equal to 10 fold between the Ki in the presence of SAM and the Ki in the presence of MTA) | –
50 to 500 | 500 to 5000 | ≥ 5000 | – | Cn1nccc1COc1ccc2c(c1)CCN(C[C@@H](O)CNC(=O)c1cc(NC3CCC3)ccn1)C2 [Compound 542, (S)-4-(cyclobutylamino)-N-(2-hydroxy-3-(6-((1-methyl-1H-pyrazol-5-yl)methoxy)-3N-dihydroisoquinolin-2(1H)-yl)propyl)picolinamide] | A (a Ki ratio greater than or equal to 10 fold between the Ki in the presence of SAM and the Ki in the presence of MTA) | –
50 to 500 | 50 to 500 | – | 500 to 5000 | CC(=O)N1CC(Nc2cc(C(=O)NCC(O)CN3CCc4c(C)c(OCc5ocnc5C)cc(F)c4C3)nc(N3CCCCC3)n2)C1 (centres unmarked) [Compound 651] | – | A (a Ki ratio greater than or equal to 10 fold between the Ki in the presence of SAM and the Ki in the presence of MTA)
500 to 5000 | 500 to 5000 | ≥ 5000 | – | CC(=O)N1CCC(Nc2cccc(C(=O)NC[C@H](O)CN3CCc4cc(OCc5cnco5)ccc4C3)c2)C1 (stereo partly drawn) [Compound 558, 3-((1-acetylpyrrolidin-3-yl)amino)-N—((S)-2-hydroxy-3-(6-(oxazol-5-ylmethoxy)-3,4-dihydroisoquinolin-2(1H)-yl)propyl)benzamide] | A (a Ki ratio greater than or equal to 10 fold between the Ki in the presence of SAM and the Ki in the presence of MTA) | –
500 to 5000 | 500 to 5000 | ≥ 5000 | – | CCCN(C)c1cc(C(=O)NC[C@H](O)CN2CCc3c(ccc(OCc4cnco4)c3Cl)C2)cc(NC2CCC2)n1 [Compound 453, (S)—N-(3-(5-chloro-6-(oxazol-5-ylmethoxy)-3N-dihydroisoquinolin-2(1H)-yl)-2-hydroxypropyl)-2-(cyclobutylamino)-6-(methyl(propyl)amino)isonicotinamide] | A (a Ki ratio greater than or equal to 10 fold between the Ki in the presence of SAM and the Ki in the presence of MTA) | –
50 to 500 | 50 to 500 | ≥ 5000 | – | CO[C@H]1C[C@H](Nc2cc(C(=O)NC[C@H](O)CN3CCc4c(ccc(OCc5cnco5)c4C)C3)ccn2)C1 [Compound 591, N-[(2S)-2-hydroxy-3-{5-methyl-6-[(1,3-oxazol-5-yl)methoxy]-1,2,3,4-tetrahydroisoquinolin-2-yl}propyl]-2-{[(1r,3r)-3-methoxycyclobutyl]amino}pyridine-4-carboxamide] | A (a Ki ratio greater than or equal to 10 fold between the Ki in the presence of SAM and the Ki in the presence of MTA) | –
< 50 | 50 to 500 | – | 500 to 5000 | O=C1N[C@H]2[C@H](CS[C@H]2CCCCC(=O)N2CCC(Nc3cc(C(=O)NC[C@H](O)CN4CCc5cc(OCc6cnco6)ccc5C4)ncn3)CC2)N1 [Compound 265] | – | A (a Ki ratio greater than or equal to 10 fold between the Ki in the presence of SAM and the Ki in the presence of MTA)
50 to 500 | 500 to 5000 | ≥ 5000 | – | O=C(NC[C@H](O)CN1CCc2c(ccc(OCc3cnco3)c2Cl)C1)c1cc(NC2CCC2)ncn1 [Compound 508, (S)—N-(3-(5-chloro-6-(oxazol-5-ylmethoxy)-3,4-dihydroisoquinolin-2(1H)-yl)-2-hydroxypropyl)-6-(cyclobutylamino)pyrimidine-4-carboxamide] | A (a Ki ratio greater than or equal to 10 fold between the Ki in the presence of SAM and the Ki in the presence of MTA) | –
